Values quoted from earlier work in publication PMC13005129 (Biochemistry, 2025).
Starred links: 1 amine or outer side, 2 acyl side, 3 side chain; linkers in the order of their positions; H or OH if unused. Positions of bridges follow the written chain, without caps; N, C: chain ends. Non-standard residues stand in square brackets, D forms with d. Residues, ends and D or L forms follow the SMILES beside them. *: point of attachment. Leu(3R-OH,Nα-propionyl) = CCC(=O)N[C@H](C(=O)*)[C@H](O)C(C)C; X1 = CC(C)[C@@H](O[*:3])[C@H](N[*:1])C(=O)[*:2]; NMeT = CN[C@H](C(=O)O)[C@@H](C)O; dPhLac = O=C(O)[C@H](O)Cc1ccccc1; NMeA = CN[C@@H](C)C(=O)O; NMeDha = C=C(NC)C(=O)O

Tests used:
[1] = system: Gq/11; conditions: cultured cells
[2] = system: M3Rs expressed by immortalized human airway smooth muscle (ASM) cells

Structure (SMILES) | block of M3R-mediated increases in [Ca2+]i [1] | change in [Ca2+]i on M3R activation [2]
C=C1C(=O)N[C@@H](C)C(=O)N(C)[C@@H](C)C(=O)N[C@@H]([C@H](OC(=O)[C@@H](NC(=O)CC)[C@H](O)C(C)C)C(C)C)C(=O)N(C)[C@@H]([C@@H](C)OC)C(=O)O[C@H](C(C)C)[C@H](NC(C)=O)C(=O)O[C@H](Cc2ccccc2)C(=O)N1C [FR900359] (Ac-[X1][dPhLac][NMeDha]A[NMeA][X1](Leu(3R-OH,Nα-propionyl))[NMeT](Me); ester 1-C) | can be effectively blocked | 
CC(=O)OC(C)C[N+](C)(C)C (centres unmarked) [methacholine] |  | leads to an increase in [Ca^2+]i
